Measurements taken from patent publication US10000476B2, “Pyridone derivative, pharmaceutical containing the same and methods of use thereof” (KAKEN PHARMACEUTICAL CO., LTD., priority 2011, dated 2018).

What was measured:
[1] = system: auricular oedema induced by TPA in BALB/c mice; test: Inhibition test of auricular oedema induced by single application of TPA in mouse; assay type: in vivo; conditions: 1 w/v % solution applied topically to ear 1 hour before TPA, auricle thickness 6 hours after TPA, read-out: Auricular oedema inhibition rate (%)
Experimental: Inhibition Test of Auricular Oedema Induced by Single Application of TPA (12-O-tetradecanoylphorbol-13-acetate) in Mouse (In Vivo Efficacy Test Based on TNF-α-Related Cutaneous Inflammation)
Auricular oedema was induced by applying 54 μmol/L TPA-acetone solution on both the inner and outer sides of the left ear of BALB/c mice (application volume of 54 μmol/L TPA-acetone solution is 10 μL for each side of the left ear (i.e. 1.08 nmol TPA/auricle)). For a non-induced group, acetone was similarly applied instead of the 54 μmol/L TPA-acetone solution. The test substance was dissolved and prepared in a 1 w/v % solution of acetone containing 10 vol % DMSO (topical administration vehicle), then the test solution was applied onto both the inner and outer sides of the left ear of the mice (application volume of this test solution is 10 μL for each side of the left ear) 1 hour before the TPA application. For a control group, the topical administration vehicle was similarly applied instead of the test substance solution. For an etanercept group, 0.2 mL of a 5 mg/mL etanercept solution was intravenously administered (1 mg/mouse) the day before TPA application and 1.5 hours before TPA application. For a human IgG (hIgG) group (etanercept control group), 0.2 mL of a 5 mg/mL hIgG solution was intravenously administered (1 mg/mouse). Auricle thickness was measured under ether anesthesia the day before TPA application and 6 hours after TPA application for evaluation of the auricular oedema inhibition effect of the test substance based on the increase in auricle thickness as an index.
The auricular oedema inhibition rate (%) of the test substance was calculated based on the following formula using (A) the average value of the increase in auricular thickness of the group administered with the test substance, (B) the average value of the increase in auricular thickness of the non-induced group, and (C) the average value of the increase in auricular thickness of the control group. […]

TACE = TACE (Homo sapiens (Human), UniProt P78536); test: TACE inhibition test (in vitro); assay type: biochemical; conditions: fluorescent synthetic substrate, 37° C., 1.5 hours
Chain of TACE (P78536 215-824): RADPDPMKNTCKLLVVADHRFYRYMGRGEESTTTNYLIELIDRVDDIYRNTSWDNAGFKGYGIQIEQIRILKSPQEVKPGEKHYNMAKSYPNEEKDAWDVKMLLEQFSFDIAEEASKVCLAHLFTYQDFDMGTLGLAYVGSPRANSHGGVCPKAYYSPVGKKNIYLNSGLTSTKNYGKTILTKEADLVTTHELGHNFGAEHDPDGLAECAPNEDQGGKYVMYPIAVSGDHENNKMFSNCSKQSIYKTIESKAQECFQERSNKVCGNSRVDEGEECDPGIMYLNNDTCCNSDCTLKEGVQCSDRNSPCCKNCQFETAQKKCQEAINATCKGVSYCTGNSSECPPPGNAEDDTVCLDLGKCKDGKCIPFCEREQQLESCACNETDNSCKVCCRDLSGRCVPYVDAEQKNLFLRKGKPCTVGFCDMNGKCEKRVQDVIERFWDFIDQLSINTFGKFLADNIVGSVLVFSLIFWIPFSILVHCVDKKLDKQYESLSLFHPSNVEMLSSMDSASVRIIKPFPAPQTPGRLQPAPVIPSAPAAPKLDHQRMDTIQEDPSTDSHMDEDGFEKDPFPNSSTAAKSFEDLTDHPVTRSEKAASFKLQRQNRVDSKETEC
How it was run: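 Recombinant enzyme (cDNA from THP-1 cells, expressed in mammalian or insect cells) with quenched substrate Nma-Leu-Ala-Gln-Ala-Val-Arg-Ser-Ser-Lys(Dnp)-D-Arg-NH2. Incubated 1.5 h at 37 °C; fluorescence read at ex 355/em 460 nm; IC50 from inhibition rate.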

Structure (SMILES) | IC50 (TACE) | inhibition in vivo at 10000 µg/mL [1]
Cc1cccn(CC2(c3ccc(OC4C=CCCC4)cc3)NC(=O)NC2=O)c1=O (stereo not drawn) [Compound I-36, 5-[4-(cyclohex-2-en-1-yloxy)phenyl]-5-[(3-methyl-2-oxopyridin-1(2H)-yl)methyl]imidazolidine-2,4-dione] | < 100 nM | 58%
Cc1cccn(CC2(c3ccc(OC4CCCCC4)cc3)NC(=O)NC2=O)c1=O (stereo not drawn) [Compound I-37, 5-[4-(cyclohexyloxy)phenyl]-5-[(3-methyl-2-oxopyridin-1(2H)-yl)methyl]imidazolidine-2,4-dione] | < 100 nM | 78%
Cc1cc(C2(Cn3cccc(C)c3=O)NC(=O)NC2=O)cc(C)c1OC1CCCC1 (stereo not drawn) [Compound I-129] | < 100 nM | 71%
Cc1cccn(CC2(c3ccc(Oc4ccc(Cl)cc4)cc3)NC(=O)NC2=O)c1=O (stereo not drawn) [Compound I-130] |  | 44%

The next lines start with results.

IC50 (TACE) | Structure (SMILES) | inhibition in vivo at 10000 µg/mL [1]
< 100 nM | Cc1cc(C2(Cn3cccc(C)c3=O)NC(=O)NC2=O)ccc1OC1C=CCCC1 (stereo not drawn) [Compound I-38] | 41%
< 100 nM | Cc1cccn(CC2(c3ccc(Oc4cccc(F)c4)cc3)NC(=O)NC2=O)c1=O (stereo not drawn) [Compound I-84] | 53%
< 100 nM | Cc1cccn(CC2(c3ccc(Oc4ccc(F)cc4)cc3)NC(=O)NC2=O)c1=O (stereo not drawn) [Compound I-85] | 78%
< 100 nM | Cc1cccn(CC2(c3ccc(Sc4ccccc4)cc3)NC(=O)NC2=O)c1=O (stereo not drawn) [Compound I-102] | 50%
